In one series the test system is norepinephrine uptake. Conditions: background statement; cited from earlier work.
Another series concerns serotonin uptake. As to conditions: background statement; cited from earlier work.
Series [1] can be described thus: Stability study of bulk material, stability-indicating HPLC. In kind it is physicochemical. As for the experimental part: Changes are monitored using a stability-indicating HPLC method. Results were calculated by normalized peak area (npa). Degradants are identified by comparison of their relative retention times against impurity standards.

Turning to `CN(C)CC(c1ccc(O)cc1)C1(O)CCCCC1` (stereo not shown) [O-desmethyl venlafaxine], the norepinephrine uptake result in the series on norepinephrine uptake is “inhibit”. Further, the serotonin uptake result in the series with serotonin uptake was “inhibit”.
Turning to “(1-[2-(dimethylamino)-1-(4-phenol)ethyl]-cyclohexanol succinate [Form V]”, the “polymorph and chemical stability demonstrated” value in series [1] (elevated temperatures and humidity (40° C./75%)) stood at 2 months. The “polymorph stability and formation of known and unknown degradants” value in series [1] (stored for over 3 to 6 months under normal conditions of temperature and humidity) is “stable”.

Source of the values: patent US7820716B2 (Mai De Ltd, priority 2007, dated 2010).
